Experimental data as given in PMC10287695, “Non-covalent inhibitors of thioredoxin glutathione reductase with schistosomicidal activity in vivo” (Nature Communications, 2023).
Where two headings read alike, the source gives them in different places. Marks after values point to notes of the source that are not given here.

Key:
[1] = molecular target: T1, S. mansoni TGR (Schistosoma mansoni, UniProt Q962Y6); assay: S. mansoni TGR enzyme inhibition (DTNB reduction); type: biochemical; conditions: for IC50: 15 min preincubation (enzyme + 100 µM NADPH + compound); for inhibition at 15 µM: compound 15 µM; for inhibition at 30 µM: compound 30 µM
T1 construct: made in house
T1 sequence (Q962Y6 1-598): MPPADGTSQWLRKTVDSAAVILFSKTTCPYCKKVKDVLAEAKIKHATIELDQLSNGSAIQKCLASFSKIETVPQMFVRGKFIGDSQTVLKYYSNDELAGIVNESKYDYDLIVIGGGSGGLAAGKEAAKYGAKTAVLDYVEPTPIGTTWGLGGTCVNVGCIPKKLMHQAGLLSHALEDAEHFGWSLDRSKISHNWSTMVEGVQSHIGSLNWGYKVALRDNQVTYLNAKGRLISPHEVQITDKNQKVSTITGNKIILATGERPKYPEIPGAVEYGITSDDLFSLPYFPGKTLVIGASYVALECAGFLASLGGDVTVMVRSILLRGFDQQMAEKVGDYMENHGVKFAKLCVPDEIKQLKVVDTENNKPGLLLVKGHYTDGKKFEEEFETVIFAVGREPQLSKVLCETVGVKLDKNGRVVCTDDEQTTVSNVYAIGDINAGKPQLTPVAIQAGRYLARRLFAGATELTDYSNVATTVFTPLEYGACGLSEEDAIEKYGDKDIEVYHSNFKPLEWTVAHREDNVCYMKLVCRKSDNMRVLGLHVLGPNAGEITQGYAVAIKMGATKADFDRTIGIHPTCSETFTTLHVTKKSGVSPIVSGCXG

[2] = molecular target: T2, Human TrxR1 (Homo sapiens, UniProt Q16881); assay: Human TrxR1 enzyme inhibition (DTNB reduction); type: biochemical; conditions: for inhibition at 15 µM: compound 15 µM; for inhibition at 30 µM: compound 30 µM
T2 construct: made in house
T2 sequence (Q16881 1-499 isoform Q16881-5): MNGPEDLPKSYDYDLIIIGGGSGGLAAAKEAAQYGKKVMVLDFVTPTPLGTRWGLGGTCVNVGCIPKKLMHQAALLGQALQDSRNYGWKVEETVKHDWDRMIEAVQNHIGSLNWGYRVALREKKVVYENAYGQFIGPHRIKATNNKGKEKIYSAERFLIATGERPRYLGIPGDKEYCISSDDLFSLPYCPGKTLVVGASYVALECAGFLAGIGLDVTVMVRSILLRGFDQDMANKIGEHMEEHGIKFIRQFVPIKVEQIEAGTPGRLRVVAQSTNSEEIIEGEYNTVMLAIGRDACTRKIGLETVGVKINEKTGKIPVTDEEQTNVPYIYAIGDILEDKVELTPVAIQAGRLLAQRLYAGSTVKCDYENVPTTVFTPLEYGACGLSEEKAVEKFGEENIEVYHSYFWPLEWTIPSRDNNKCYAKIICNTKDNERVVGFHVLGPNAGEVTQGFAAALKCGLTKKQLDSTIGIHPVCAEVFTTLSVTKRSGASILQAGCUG
Method: Recombinant TGR, human TrxR1, B. malayi (Bm)TrxR and human GR proteins were expressed and purified as described[20],[69],[79]. The codon optimized sequence for P. falciparum (PfTrxR, https://www.ncbi.nlm.nih.gov/protein/CAA60574.1/) with an N-terminal 6-His tag was synthesized and inserted into pET15b (GenScript) and expressed in BL21 (DE3) cells and purified as described for human GR[20]. TGR and TrxR enzyme inhibition assays were performed in triplicate at 25 °C as described[20] in 0.1 M potassium phosphate (pH 7.4), 10 mM EDTA, 100 µM NADPH and 0.01% Tween-20. […] The reaction was started with addition of an equal volume of DTNB (6 mM) and NADPH (100 µM) and the increase in A412 during the first 3 min was recorded. […] The reaction was preincubated for 15 min. Activity was initiated with the addition of 1 mM GSSG and 100 μM NADPH and initial rates of NADPH oxidation were monitored at 340 nm. The reactions were done in triplicate. The IC50 was calculated in GraphPad Prism.

[3] = test system: S. mansoni newly transformed schistosomula (NTS); assay: Schistosomicidal activity ex vivo, NTS (Cell Titer Glo); type: cell-based; conditions: for LD50 ex vivo S. mansoni NTS: 24 h exposure, Cell TiterGlo
Method: Oncomelania hupensis subsp. hupensis, Chinese strain, infected with S. japonicum, Chinese strain, and Biomphalaria glabrata, strain NMRI, infected with S. mansoni, strain NMRI, were provided by the NIAID Schistosomiasis Resource Center for distribution through BEI Resources, NIAID, NIH. After infections were patent, snails were exposed to bright light for 1 hr to obtain cercariae. Cercariae were mechanically transformed to schistosomula. Briefly, cercariae were placed on ice for 30 min and then centrifuged at 350 × g for 10 mins. The supernatant was decanted and 2 ml of serum-free M199 medium was added to cercarial pellets and vortexed for 1 min until cercarial tails were detached. NTS were purified by layering on 4 °C Percoll gradient suspension containing Eagle’s minimum essential medium, penicillin-streptomycin (10,000 U per ml penicillin/10,000 U per ml streptomycin), and 1 M HEPES in 0.85% NaCl with cercariae suspension and centrifuged at 500 × g for 15 min. Cercarial pellets were resuspended and washed thrice in serum-free M199 medium and collected at 100 × g for 5 min. NTS (240) were transferred to U-bottom 96 well assay plates containing 200 µl of M199 medium supplemented with 5.5 mM D-glucose, penicillin-streptomycin and 5% heat inactivated fetal bovine serum and incubated at 37 °C in a 5% CO2 incubator overnight.
DMSO formulated compounds were diluted with phenol red free M199 medium or RPMI medium for NTS or juvenile and adult worms, respectively, at <1% DMSO final concentrations. NTS, juvenile and adult worms from overnight cultures were tested against compounds in triplicate. Controls were treated with DMSO alone or 5 µM AF as a positive control in appropriate medium. Worm viability was assessed at 24 or 72 h by measuring ATP content of worms using Cell Titer Glo Assay (Promega) as described. Schistosome viabilities in the presence of the compounds were assessed using this formula: % Viability = Averages of Test / Averages of DMSO Control x 100.

[4] = test system: Vero cells; assay: Cytotoxicity in mammalian cells (Cell Titer Glo); type: cell-based; conditions: for LD50 ex vivo VERO: African green monkey, 24 h; for EC50: Chlorocebus sabaeus, Vero, estimate from raw data, read-out: EC50 viability of Vero cells
Method: Following overnight incubation, formulated DMSO-compound stock solutions were diluted with DMEM at <1% DMSO final concentrations. […] Vero cells treated similarly with different concentrations of PZQ, MZM and AF (Cayman Chemicals) were used as positive controls.

[5] = 6 h preincubation (enzyme + 100 µM NADPH + compound), read-out: S. mansoni TGR inhibition (%) at 66.7 µM
[6] = TGR, 15 minutes pre-incubation, read-out: % inhibition
[7] = TGR, 6 hours pre-incubation, read-out: % inhibition
[8] = 15 min preincubation (enzyme + 100 µM NADPH + compound), read-out: Human TrxR1 IC50
[9] = 6 h preincubation, read-out: Human TrxR1 IC50 (µM) or inhibition (%) at 66.7 µM: IC50
[10] = hsTrxR, 15 minutes pre-incubation
[11] = Schistosoma mansoni, 72 h, read-out: % viability, S. mansoni NTS
[12] = TGR, 15 minutes pre-incubation, compound 66.7 µM, read-out: % inhibition
[13] = hsTrxR, 15 minutes pre-incubation, compound 66.7 µM, read-out: % inhibition
[14] = 66.7 µM, 6 h preincubation, read-out: Human TrxR1 IC50 (µM) or inhibition (%) at 66.7 µM: inhibition

| SMILES | IC50 [1] [µM] | inhibition at 66.7 µM [1, 5] [%] | inhibition at 15 µM [1, 6] [%] | inhibition at 30 µM [1, 6] [%] | IC50 [2, 8] [µM] | IC50 [2, 9] [µM] | inhibition at 15 µM [2, 10] [%] | inhibition at 30 µM [2, 10] [%] | LD50 ex vivo S. mansoni NTS [3] [µM] | LD50 NTS after 72 h exposure [3] [µM] | viability at 1 µM ([3]; Schistosoma mansoni) [%] | viability at 5 µM ([3]; Schistosoma mansoni) [%] | viability at 15 µM ([3]; Schistosoma mansoni) [%] | viability at 30 µM ([3]; Schistosoma mansoni) [%] | viability at 50 µM ([3]; Schistosoma mansoni) [%] | LD50 ex vivo VERO [4] | EC50 [4] [µM] | inhibition at 66.7 µM [1, 12] [%] | inhibition at 66.7 µM [2, 13] [%] | also measured |
| --- | --- | --- | --- | --- | --- | --- | --- | --- | --- | --- | --- | --- | --- | --- | --- | --- | --- | --- | --- | --- |
| Cc1oc(-c2ccc3c(c2)OCO3)nc1CN[C@@H]1C[C@@H]2C[C@H]([C@H]1C)C2(C)C [Compound 1] | > 66.7 | 42.1 | 5.86 | 10 | > 66.7 | 37 ± 3.44 | 6.99 | 11.4 | 5.9 ± 0.25 | 2.2 ± 0.19 | 89.9 | 52.7 | 30 | 24.6 | 17.6 | >75.5^a µM | > 200 |  |  | inhibition at 15 µM [1, 7]: 7.78%; inhibition at 30 µM [1, 7]: 21.1%; viability at 0.25 µM [3, 11]: 92.1%; viability at 1 µM [3, 11]: 71.2%; viability at 3 µM [3, 11]: 48.1%; viability at 6 µM [3, 11]: 23.4% |
| CCc1ccccc1-c1nc(CN[C@@H]2C[C@@H]3C[C@H]([C@H]2C)C3(C)C)c(C)o1 [Compound 2] | > 66.7 | 28.7 | 4.35 | 8.85 | > 66.7 | 50 ± 13.6 | 2.2 | 4.72 | 0.6 ± 0.21 | 0.18 ± 0.007 | 47.9 | 0.373 | 0.0945 | 0.0764 | 0.0707 | 54.7 ± 6.65 µM | > 50 | 12.5 | 11.5 | inhibition at 15 µM [1, 7]: 12.1%; inhibition at 30 µM [1, 7]: 14.6%; inhibition at 66.7 µM ([1]; TGR, 6 hours pre-incubation, compound 66.7 µM, read-out: % inhibition): 28.7%; viability at 0.125 µM [3, 11]: 65%; viability at 0.25 µM [3, 11]: 40.4%; viability at 0.5 µM [3, 11]: 3.04%; viability at 1 µM [3, 11]: 0.411% |
| Cc1oc(-c2ccccc2)nc1CN[C@@H]1C[C@@H]2C[C@H]([C@H]1C)C2(C)C [Compound 3] | > 66.7 | 45 |  |  | > 66.7 | 42.7 ± 3.95 |  |  | 4.3 ± 0.20 |  |  |  |  |  |  | 36.1 ± 3.0 µM | > 50 |  |  |  |
| Cc1oc(C2CCCCC2)nc1CN[C@@H]1C[C@@H]2C[C@H]([C@H]1C)C2(C)C [Compound 4] | > 66.7 | 68.6 |  |  | > 66.7 | 19 ± 5.72 | 14.3 | 26.9 | 0.85 ± 0.11 |  |  |  |  |  |  | >50^a µM |  |  | 40.2 |  |
| Cc1oc(-c2ccc3ccccc3c2)nc1CNC1CCCCCC1 [Compound 5] |  | 73 |  |  | > 66.7 |  |  |  | 5.8 ± 0.15 |  |  |  |  |  |  | >50^a µM |  |  |  | inhibition at 66.7 µM [2, 14]: 28.5% |
| C#CCN(Cc1nc(-c2ccccc2)oc1C)[C@@H]1C[C@@H]2C[C@H]([C@H]1C)C2(C)C [Compound 6] |  |  |  | 95.8 | > 66.7 |  |  | 1.95 | 17.5 ± 3.7 | 7.8 ± 2.36 |  | 81.1 | 57 | 30.8 | 26.4 | >100^a µM |  | 96.4 | 2.61 | inhibition at 1 µM ([1]; TGR, 15 minutes pre-incubation, compound 1 µM): 26.3%; inhibition at 5 µM ([1]; TGR, 15 minutes pre-incubation, compound 5 µM): 74.8%; times more potent against TGR than human TrxR1 ([1]; ratio of IC50s): at least 25 fold; inhibition at 66.7 µM [2, 14]: 28.9%; viability at 1.25 µM [3, 11]: 86%; viability at 2.5 µM [3, 11]: 73.8%; viability at 5 µM [3, 11]: 55.5%; viability at 10 µM [3, 11]: 45.1% |
| Cc1oc(C2CCCCC2)nc1C(=O)N[C@@H]1C[C@@H]2C[C@H]([C@H]1C)C2(C)C [Compound 7] | 14.6 ± 1.22 |  | 75.5 | 88.1 | 22.3 ± 2.03 |  | 38.1 | 63.3 | 4.7 ± 0.31 |  | 85.7 | 40.2 |  |  |  | >50^a µM |  | 95.1 | 92.7 | viability at 1.5 µM ([3]; Schistosoma mansoni): 72.1%; viability at 2.5 µM ([3]; Schistosoma mansoni): 47.6% |
